In patent US20040048899A1, “Tartrate salts of thiazollidnedione derivative” (priority 2000, published 2004):
Where two headings read alike, the source gives them in different places.

Conditions: 1 month, glass bottle, product of Example 4
Procedure: The solid state stability of the drug substance was determined by storing approximately 1.0 g of the material in a glass bottle at i) 40° C./75% Relative Humidity (RH), open exposure, for 1 month and b) at 50° C., closed, for 1 month. The material was assayed by HPLC for final content and degradation products in both cases.

[1] = 40° C./75% Relative Humidity, open exposure

Solid state stability: HPLC assay [1]: 96 % initial
Solid state stability: degradation observed [1]: No significant degradation observed
Solid state stability: HPLC assay (50° C., closed): 98 % initial
Solid state stability: degradation observed (50° C., closed): No significant degradation observed
SMILES: CN(CCOc1ccc(CC2SC(=O)NC2=O)cc1)c1ccccn1.O=C(O)C(O)C(O)C(=O)O (stereo not drawn) [D(−) Tartrate, 5-[4-[2-(N-methyl-N-(2-pyridyl)amino)ethoxy]benzyl]thiazolidine-2,4-dione, D(−) tartrate salt]
